PubChem BioAssay AID2060487 (Molecular Pharmacology Branch, DTP, NCI, 2025)

Tested on: 997537-175-T-J1-PDC complex spheroid viability
Assay: Anticancer human tumor 997537-175-T-J1-PDC patient-derived colon adenocarcinoma cell line growth inhibition [GQUAD]
Conditions: for IC50: curve of first compound; for viability, T/C: stronger effect = lower value
Summary of the method: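 Multi-cell-type spheroids of tumor cells with HUVEC and mesenchymal stem cells, treated with drug combinations. Concentrations descend in half-log steps from near clinical Cmax, or from 10 microM where Cmax is unknown; viability read-out.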

[1] = second compound 0.0316 µM, first compound 0.0316 µM
[2] = second compound 0.0316 µM, first compound 0.1 µM
[3] = second compound 0.0316 µM, first compound 0.316 µM
[4] = second compound 0.0316 µM, first compound 1 µM
[5] = second compound 0.0316 µM, first compound 3.16 µM
[6] = second compound 0.0316 µM, first compound 10 µM
[7] = second compound 0.1 µM, first compound 0.0316 µM
[8] = second compound 0.1 µM, first compound 0.1 µM
[9] = second compound 0.1 µM, first compound 0.316 µM
[10] = second compound 0.1 µM, first compound 1 µM
[11] = second compound 0.1 µM, first compound 3.16 µM
[12] = second compound 0.1 µM, first compound 10 µM
[13] = second compound 0.316 µM, first compound 0.0316 µM
[14] = second compound 0.316 µM, first compound 0.1 µM
[15] = second compound 0.316 µM, first compound 0.316 µM
[16] = second compound 0.316 µM, first compound 1 µM
[17] = second compound 0.316 µM, first compound 3.16 µM
[18] = second compound 0.316 µM, first compound 10 µM
[19] = second compound 1 µM, first compound 0.0316 µM
[20] = second compound 1 µM, first compound 0.1 µM
[21] = second compound 1 µM, first compound 0.316 µM
[22] = second compound 1 µM, first compound 1 µM
[23] = second compound 1 µM, first compound 3.16 µM
[24] = second compound 1 µM, first compound 10 µM
[25] = second compound 3.16 µM, first compound 0.0316 µM
[26] = second compound 3.16 µM, first compound 0.1 µM
[27] = second compound 3.16 µM, first compound 0.316 µM
[28] = second compound 3.16 µM, first compound 1 µM
[29] = second compound 3.16 µM, first compound 3.16 µM
[30] = second compound 3.16 µM, first compound 10 µM
[31] = second compound 10 µM, first compound 0.0316 µM
[32] = second compound 10 µM, first compound 0.1 µM
[33] = second compound 10 µM, first compound 0.316 µM
[34] = second compound 10 µM, first compound 1 µM
[35] = second compound 10 µM, first compound 3.16 µM
[36] = second compound 10 µM, first compound 10 µM
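Further: spheroids exposed to the agents for 7 days.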
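Wherever viability, T/C is given: 100% = DMSO vehicle control viability.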

CC1COCCN1c1cc(C2(S(C)(=N)=O)CC2)nc(-c2ccnc3[nH]ccc23)n1 (stereo not drawn) + Cc1[nH]c2ccc(F)cc2c1-c1nc2c3cccnc3c3ncccc3c2[nH]1
IC50 (second compound 0.0316 µM): 9.53 µM
IC50 (second compound 0.1 µM): 6.25 µM
IC50 (second compound 0.316 µM): > 10 µM
IC50 (second compound 1 µM): > 10 µM
IC50 (second compound 3.16 µM): 6.51 µM
IC50 (second compound 10 µM): > 10 µM
viability, T/C [1]: 96.7%
viability, T/C [2]: 83.8%
viability, T/C [3]: 76.3%
viability, T/C [4]: 71.9%
viability, T/C [5]: 62.9%
viability, T/C [6]: 47.5%
viability, T/C [7]: 95.8%
viability, T/C [8]: 86.2%
viability, T/C [9]: 82.4%
viability, T/C [10]: 77.6%
viability, T/C [11]: 70.3%
viability, T/C [12]: 37.4%
viability, T/C [13]: 107%
viability, T/C [14]: 73.8%
viability, T/C [15]: 69.7%
viability, T/C [16]: 70%
viability, T/C [17]: 62.3%
viability, T/C [18]: 49.3%
viability, T/C [19]: 80.3%
viability, T/C [20]: 46.2%
viability, T/C [21]: 76.8%
viability, T/C [22]: 94%
viability, T/C [23]: 72.5%
viability, T/C [24]: 60.6%
viability, T/C [25]: 59.7%
viability, T/C [26]: 79.8%
viability, T/C [27]: 66.1%
viability, T/C [28]: 55.8%
viability, T/C [29]: 71%
viability, T/C [30]: 40.4%
viability, T/C [31]: 63.7%
viability, T/C [32]: 76.2%
viability, T/C [33]: 72.2%
viability, T/C [34]: 71.2%
viability, T/C [35]: 64.5%
viability, T/C [36]: 74.8%

O=c1[nH]cc(F)c(=O)[nH]1 + Cc1cnc(CNC(=O)c2c(=O)c3ccc(N4CCCN(C)CC4)nc3n3c2sc2ccccc23)cn1
IC50 (second compound 0.0316 µM): > 10 µM
IC50 (second compound 0.1 µM): > 10 µM
IC50 (second compound 0.316 µM): > 10 µM
IC50 (second compound 1 µM): > 10 µM
IC50 (second compound 3.16 µM): > 10 µM
IC50 (second compound 10 µM): > 10 µM
viability, T/C [1]: 96.2%
viability, T/C [2]: 87.6%
viability, T/C [3]: 85.1%
viability, T/C [4]: 92.8%
viability, T/C [5]: 89.6%
viability, T/C [6]: 76.2%
viability, T/C [7]: 75.6%
viability, T/C [8]: 82.8%
viability, T/C [9]: 92.8%
viability, T/C [10]: 82.8%
viability, T/C [11]: 102%
viability, T/C [12]: 83%
viability, T/C [13]: 75.9%
viability, T/C [14]: 74.3%
viability, T/C [15]: 84%
viability, T/C [16]: 105%
viability, T/C [17]: 110%
viability, T/C [18]: 111%
viability, T/C [19]: 88.1%
viability, T/C [20]: 70.1%
viability, T/C [21]: 84.9%
viability, T/C [22]: 109%
viability, T/C [23]: 67.2%
viability, T/C [24]: 82.6%
viability, T/C [25]: 78.4%
viability, T/C [26]: 96.1%
viability, T/C [27]: 87.8%
viability, T/C [28]: 90.1%
viability, T/C [29]: 82.7%
viability, T/C [30]: 92.7%
viability, T/C [31]: 73.7%
viability, T/C [32]: 95.3%
viability, T/C [33]: 98.3%
viability, T/C [34]: 75.2%
viability, T/C [35]: 107%
viability, T/C [36]: 90.6%

C=CC(=O)N1CCN(c2nc(=O)n(-c3c(C)ccnc3C(C)C)c3nc(-c4c(O)cccc4F)c(F)cc23)C(C)C1 (stereo not drawn) + Cc1cnc(CNC(=O)c2c(=O)c3ccc(N4CCCN(C)CC4)nc3n3c2sc2ccccc23)cn1
IC50 (second compound 0.0316 µM): > 10 µM
IC50 (second compound 0.1 µM): > 10 µM
IC50 (second compound 0.316 µM): > 10 µM
IC50 (second compound 1 µM): > 10 µM
IC50 (second compound 3.16 µM): > 10 µM
IC50 (second compound 10 µM): > 10 µM
viability, T/C [1]: 102%
viability, T/C [2]: 90.1%
viability, T/C [3]: 93.8%
viability, T/C [4]: 71.5%
viability, T/C [5]: 77%
viability, T/C [6]: 87.7%
viability, T/C [7]: 98.8%
viability, T/C [8]: 77.7%
viability, T/C [9]: 87.5%
viability, T/C [10]: 64.5%
viability, T/C [11]: 102%
viability, T/C [12]: 91.4%
viability, T/C [13]: 84.7%
viability, T/C [14]: 85%
viability, T/C [15]: 85.4%
viability, T/C [16]: 94.9%
viability, T/C [17]: 89.4%
viability, T/C [18]: 90.4%
viability, T/C [19]: 93.7%
viability, T/C [20]: 100%
viability, T/C [21]: 99%
viability, T/C [22]: 95%
viability, T/C [23]: 102%
viability, T/C [24]: 99.2%
viability, T/C [25]: 68.9%
viability, T/C [26]: 115%
viability, T/C [27]: 96.5%
viability, T/C [28]: 102%
viability, T/C [29]: 103%
viability, T/C [30]: 94.4%
viability, T/C [31]: 84.1%
viability, T/C [32]: 83.5%
viability, T/C [33]: 114%
viability, T/C [34]: 87.7%
viability, T/C [35]: 95.3%
viability, T/C [36]: 118%

COc1cc(C2c3cc4c(cc3C(OC3OC5COC(C)OC5C(O)C3O)C3COC(=O)C23)OCO4)cc(OC)c1O (stereo not drawn) + Cc1[nH]c2ccc(F)cc2c1-c1nc2c3cccnc3c3ncccc3c2[nH]1
IC50 (second compound 0.0316 µM): > 10 µM
IC50 (second compound 0.1 µM): > 10 µM
IC50 (second compound 0.316 µM): > 10 µM
IC50 (second compound 1 µM): > 10 µM
IC50 (second compound 3.16 µM): > 10 µM
IC50 (second compound 10 µM): > 10 µM
viability, T/C [1]: 105%
viability, T/C [2]: 90%
viability, T/C [3]: 102%
viability, T/C [4]: 64.1%
viability, T/C [5]: 109%
viability, T/C [6]: 53.6%
viability, T/C [7]: 99%
viability, T/C [8]: 75.9%
viability, T/C [9]: 89%
viability, T/C [10]: 88.3%
viability, T/C [11]: 90.8%
viability, T/C [12]: 75.3%
viability, T/C [13]: 96.4%
viability, T/C [14]: 64.1%
viability, T/C [15]: 91.1%
viability, T/C [16]: 84.5%
viability, T/C [17]: 91%
viability, T/C [18]: 76.8%
viability, T/C [19]: 89.8%
viability, T/C [20]: 77.2%
viability, T/C [21]: 88.5%
viability, T/C [22]: 84.8%
viability, T/C [23]: 67.7%
viability, T/C [24]: 53.1%
viability, T/C [25]: 88.5%
viability, T/C [26]: 71%
viability, T/C [27]: 85.8%
viability, T/C [28]: 75.7%
viability, T/C [29]: 98.6%
viability, T/C [30]: 72.4%
viability, T/C [31]: 84.8%
viability, T/C [32]: 92.7%
viability, T/C [33]: 78.6%
viability, T/C [34]: 81%
viability, T/C [35]: 86%
viability, T/C [36]: 65.2%
